Test results reported in patent publication US8084399B2, “Process for screening of a binding amphiphilic peptides specific for hairpin RNA” (priority 2009, dated 2011).
Where “and” joins values, the source holds several entries; their conditions need not be identical. Identical values can stand only once. Where no end group is shown, it is not given here. [ ]: non-standard residue; d: D form. Orn = NCCC[C@H](N)C(=O)O; Dab = NCC[C@H](N)C(=O)O; Dap = NC[C@H](N)C(=O)O

What was measured:
[1] = target: RRE hairpin RNA; test: Fluorescence anisotropy competition with Rev-N-rhodamine probe, binding to RRE hairpin RNA; design: species or system HIV; conditions: 20° C., pH 7.4, read-out: Dissociation constant, RRE
Description: (§1) Binding force to each target hairpin RNA (IRES, RRE, TAR and 16S A-site) was measured by fluorescence polarization using alanine scanned peptide library (1b-1h).
(§2) Particularly, […] of each target RNA was prepared at the concentration of 10 mM, which stood at 65° C. for 10 minutes and then cooled down slowly at room temperature, leading to folding. The amphiphilic peptide was prepared respectively at the concentration of […], which were maintained at 0° C. As a probe, rev peptide labeled with rhodamine (Rev-N-rhodamine) emitting […] fluorescence was prepared at the concentration of 10 mM. Buffer was composed of 140 mM NaCl, 5 mM KCl, 1 mM MgCl2, and 20 mM HEPES (N-2-Hydroxyethylpiperazine-N′-2-Ethanesulfonic Acid, pH 7.4). Fluorescence Anisotropy was measured using AMINCO-Bowman Series Luminescence Spectrometer at 20° C. Ten nM of the probe was added in […] of buffer, to which target RNA was added to induce interaction between the probe and the target RNA. At that time, anisotropy value increased. Then, the synthesized peptide competing with the probe for binding site was added thereto with increasing the concentration slowly. Changes of fluorescence polarization were measured until fluorescence polarization reached as low as the beginning. Considering the concentration and amount of the peptide added, binding force to target RNA was calculated. That is, the binding strength between target RNA and peptide was determined according to the following KaleidaGraph. [Peptide]=Kd(Amax−A)/[Kd(A−A0)+1]×[RNA]−Kd(A−A0)^2[Probe]0/(Amax−A)(Amax−A0)
(§3) Herein, [Peptide] indicates the concentration of peptide, [RNA] indicates the concentration of target RNA, and [Probe]0 indicates the concentration of probe. A is the value of fluorescence anisotropy of sample, Amax is the value of totally bound tracer, and A0 is the value of totally free tracer.

[2] = target: 16S ribosomal RNA A-site; test: Fluorescence anisotropy competition with Rev-N-rhodamine probe, binding to 16S A-site; conditions: 20° C., pH 7.4, read-out: Dissociation constant, 16S A-site
Description: as §1, §2, §3

[3] = test system: IRES domain IV hairpin; test: Fluorescence anisotropy competition with Rev-N-rhodamine probe, binding to IRES hairpin; design: species or system HCV; conditions: for differentiation coefficient (IRES): (mean Kd to other hairpin RNA)/(Kd to one hairpin RNA); for Kd: fluorescence anisotropy, 20° C., pH 7.4, read-out: Dissociation constant, IRES
Description: as §1, §2, §3

[4] = Circular dichroism (CD), percentage of alpha-helix; format: physicochemical; conditions: CD at 20° C., condition not given; for Alpha-helical rate (%), second value of pair: value after the slash; for Alpha-helical rate (%), first value of pair: value before the slash
Description: To investigate alpha-helix of the amphiphilic peptide (1a-1h), circular dichroism (CD) was performed. Particularly, CD was measured at 20° C. by using JASCO model J715 spectropolarimeter. Scanning was performed at 190-250 nm three times (bandwidth: 1 nm, datapitch: 0.5 nm, speed: 100 nm/min), which were averaged to obtain CD data. Spectrum was corrected by measuring background spectrum. CD signal was recorded after modulating thereof with mean residue ellipticity [Q]. Percentage (%) of alpha-helix(fn) was calculated by the following formula. [Q]=Qobs[MRW/(10lc)]
MRW=mean residue weight (dividing molecular weight by the number of peptide bond, l=pathway length (cm), c=concentration (mg/mL). fn=([Q]222−[Q]coil)/([Q]helix−[Q]coil) [Q]helix=−40,000[…]+100t [Q]coil=640−45t
[Q]222=mean residue ellipticity at 222 nm (deg cm2 mol-1), [Q]helix=ellipticity of peptide having complete helical structure, [Q]coil=ellipticity of peptide having complete random coil structure, n=number of amino acid, t=° C.

[5] = target: TAR hairpin RNA; test: Fluorescence anisotropy competition with Rev-N-rhodamine probe, binding to TAR hairpin RNA; design: species or system HIV; conditions: fluorescence anisotropy, 20° C., pH 7.4; read-out: Dissociation constant, TAR
Description: as §1, §2, §3

Row | Substance | Kd [1] [nM] | Kd [2] [nM] | differentiation coefficient (IRES) [3] | Kd [3] [nM] | Alpha-helical rate (%), second value of pair [4] [%] | Alpha-helical rate (%), first value of pair [4] [%] | Kd [5] [nM] | binding strength to IRES, in words ([3]; compared with the original peptide)
1 | LKKLLDabLLOrnKLLDapLAG (LKKLL[Dab]LL[Orn]KLL[Dap]LAG-NH2; N-terminus assumed; SMILES CC(C)C[C@H](NC(=O)[C@H](CN)NC(=O)[C@H](CC(C)C)NC(=O)[C@H](CC(C)C)NC(=O)[C@H](CCCCN)NC(=O)[C@H](CCCN)NC(=O)[C@H](CC(C)C)NC(=O)[C@H](CC(C)C)NC(=O)[C@H](CCN)NC(=O)[C@H](CC(C)C)NC(=O)[C@H](CC(C)C)NC(=O)[C@H](CCCCN)NC(=O)[C@H](CCCCN)NC(=O)[C@@H](N)CC(C)C)C(=O)N[C@@H](C)C(=O)NCC(N)=O) [2m, second generation peptide, hydrophilic face modified] | 19 | 13 | 4.9 | 4.3 | 69 | 49 | 31 | –
2 | LKKLLKLLAKLLKLKG [1e, alanine scanned first generation peptide] | 130 | 180 | 1.1 | 120 | 43 | 12 | 74 | reduced binding strength
3 | LKKLLDabWLKKLLKLAG (LKKLL[Dab]WLKKLLKLAG-NH2; N-terminus assumed; SMILES CC(C)C[C@H](NC(=O)[C@H](CCCCN)NC(=O)[C@H](CC(C)C)NC(=O)[C@H](CC(C)C)NC(=O)[C@H](CCCCN)NC(=O)[C@H](CCCCN)NC(=O)[C@H](CC(C)C)NC(=O)[C@H](Cc1c[nH]c2ccccc12)NC(=O)[C@H](CCN)NC(=O)[C@H](CC(C)C)NC(=O)[C@H](CC(C)C)NC(=O)[C@H](CCCCN)NC(=O)[C@H](CCCCN)NC(=O)[C@@H](N)CC(C)C)C(=O)N[C@@H](C)C(=O)NCC(N)=O) [3a, third generation peptide, both faces modified] | 22 | 13 | 10 | 1.8 | 55 | 29 | 19 | –
4 | LKKLLKLWKKLLKLAG [2r, tryptophan scanned second generation peptide] | 37 | 65 | 0.75 | 92 | 59 | 14 | 82 | –
5 | LAKLLKLLKKLLKLKG [1b, alanine scanned first generation peptide] | 140 | 160 | 2.0 | 53 | 44 | 9 | 16 | –
6 | LKKLLKWLKKLLDapLAG (LKKLLKWLKKLL[Dap]LAG-NH2; N-terminus assumed; SMILES CC(C)C[C@H](NC(=O)[C@H](CN)NC(=O)[C@H](CC(C)C)NC(=O)[C@H](CC(C)C)NC(=O)[C@H](CCCCN)NC(=O)[C@H](CCCCN)NC(=O)[C@H](CC(C)C)NC(=O)[C@H](Cc1c[nH]c2ccccc12)NC(=O)[C@H](CCCCN)NC(=O)[C@H](CC(C)C)NC(=O)[C@H](CC(C)C)NC(=O)[C@H](CCCCN)NC(=O)[C@H](CCCCN)NC(=O)[C@@H](N)CC(C)C)C(=O)N[C@@H](C)C(=O)NCC(N)=O) [3c, third generation peptide, both faces modified] | 9.7 | 21 | 17 | 0.75 | 36 | 29 | 8.3 | –
7 | LKKLLKLLKKLLDapLAG (LKKLLKLLKKLL[Dap]LAG-NH2; N-terminus assumed; SMILES CC(C)C[C@H](NC(=O)[C@H](CN)NC(=O)[C@H](CC(C)C)NC(=O)[C@H](CC(C)C)NC(=O)[C@H](CCCCN)NC(=O)[C@H](CCCCN)NC(=O)[C@H](CC(C)C)NC(=O)[C@H](CC(C)C)NC(=O)[C@H](CCCCN)NC(=O)[C@H](CC(C)C)NC(=O)[C@H](CC(C)C)NC(=O)[C@H](CCCCN)NC(=O)[C@H](CCCCN)NC(=O)[C@@H](N)CC(C)C)C(=O)N[C@@H](C)C(=O)NCC(N)=O) [2i, second generation peptide, hydrophilic face modified] | 23 | 20 | 12 | 1.4 | 54 | 39 | 8.4 | –
8 | LKKLLKLLOrnKLLDapLAG (LKKLLKLL[Orn]KLL[Dap]LAG-NH2; N-terminus assumed; SMILES CC(C)C[C@H](NC(=O)[C@H](CN)NC(=O)[C@H](CC(C)C)NC(=O)[C@H](CC(C)C)NC(=O)[C@H](CCCCN)NC(=O)[C@H](CCCN)NC(=O)[C@H](CC(C)C)NC(=O)[C@H](CC(C)C)NC(=O)[C@H](CCCCN)NC(=O)[C@H](CC(C)C)NC(=O)[C@H](CC(C)C)NC(=O)[C@H](CCCCN)NC(=O)[C@H](CCCCN)NC(=O)[C@@H](N)CC(C)C)C(=O)N[C@@H](C)C(=O)NCC(N)=O) [peptide 2k, second generation peptide, hydrophilic face modified] | 20 | 17 | 24 and 25 | 0.68 | 61 | 48 | 13 | –
9 | LKKLLKLLDapKLLKLAG (LKKLLKLL[Dap]KLLKLAG-NH2; N-terminus assumed; SMILES CC(C)C[C@H](NC(=O)[C@H](CCCCN)NC(=O)[C@H](CC(C)C)NC(=O)[C@H](CC(C)C)NC(=O)[C@H](CCCCN)NC(=O)[C@H](CN)NC(=O)[C@H](CC(C)C)NC(=O)[C@H](CC(C)C)NC(=O)[C@H](CCCCN)NC(=O)[C@H](CC(C)C)NC(=O)[C@H](CC(C)C)NC(=O)[C@H](CCCCN)NC(=O)[C@H](CCCCN)NC(=O)[C@@H](N)CC(C)C)C(=O)N[C@@H](C)C(=O)NCC(N)=O) [2f, second generation peptide, hydrophilic face modified] | 10 | 15 | 0.6 | 20 | 57 | 25 | 11 | –
10 | LKKWLKLLKKLLKLAG [2o, tryptophan scanned second generation peptide] | 5.9 | 15 | 5.6 | 3.3 | 52 | 4.6 | 34 | –
11 | LKKLLDabLLKKLLDapLAG (LKKLL[Dab]LLKKLL[Dap]LAG-NH2; N-terminus assumed; SMILES CC(C)C[C@H](NC(=O)[C@H](CN)NC(=O)[C@H](CC(C)C)NC(=O)[C@H](CC(C)C)NC(=O)[C@H](CCCCN)NC(=O)[C@H](CCCCN)NC(=O)[C@H](CC(C)C)NC(=O)[C@H](CC(C)C)NC(=O)[C@H](CCN)NC(=O)[C@H](CC(C)C)NC(=O)[C@H](CC(C)C)NC(=O)[C@H](CCCCN)NC(=O)[C@H](CCCCN)NC(=O)[C@@H](N)CC(C)C)C(=O)N[C@@H](C)C(=O)NCC(N)=O) [2l, second generation peptide, hydrophilic face modified] | 14 | 14 | 13 | 1.1 | 50 | 40 | 16 | –
